Assay [1] deals with phospho-p90RSK in A375 cell line. Nature of the assay: A375 Phospho-p90RSK Cellular Assay. It counts as cell-based, human. The following applies: Homo sapiens, A-375, 2 h, A375 cells, 2 hours incubation. In short, it runs like this:
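A375 cells (2400/well, DMEM/10% FCS) seeded overnight, then dosed over a 12-point range from 30 μM down to 0.00003 μM (0.3% DMSO) for 2 h at 37 °C. Fixed cells were immunostained for phospho-p90RSK Thr359 with Hoechst nuclear counterstain and read by high-content imaging; IC50s fitted from dose-response.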

The test system of assay [2] is panel of cancer cell lines with KRAS mutations. Nature of the assay: Cell growth inhibition, monotherapy, panel of KRAS mutant lines. In kind it is cell-based, human. The following applies: A549, H2122, H2009, Calu6; 3 days of treatment. The source says:
A549 is a human non small cell lung cancer line carrying an oncogenic mutation in the KRAS gene (G12S). H2122 is a human non small cell lung cancer line carrying an oncogenic mutation in the KRAS gene (G12C). H2009 is a human non small cell lung cancer line carrying an oncogenic mutation in the KRAS gene (G12A). Calu6 is a human non small cell lung cancer line carrying mutation in the KRAS ([…]) gene. All cell lines were obtained from the American Type Culture Collection.
All cell line were maintained at 37° C. and 5% CO2 in a humidified atmosphere and grown in RPMI-1640 growth media supplemented with 10% FBS and 2 mmol/L glutamine. […]
Cells were seeded in 384-well black, clear bottomed plates (Greiner Bio-One, Stonehouse, UK), cultured for 18-24 hours and treated with increasing concentrations of Example 18 and selumetinib (0-10 μmol/L) in a 6×6 dosing matrix. […] After 3 days of treatment, live cell number was determined using a Sytox Green endpoint as described previously (“Davies B R, Greenwood H, Dudley P, et al: Preclinical pharmacology of AZD5363, an inhibitor of AKT: Pharmacodynamics, antitumor activity, and correlation of monotherapy activity with genetic background. Mol Cancer Ther 11(4):873-87, 2012”). […] Cells were then permeabilised by the overnight addition of saponin (0.03% final concentration, diluted in TBS-EDTA buffer) and a total cell count measured. […]

Molecules are shown by their SMILES.

The IC50 is the concentration needed to halve the response being measured. Read a high IC50 as a need for much substance. As for `COC[C@H]1Cn2cc(-c3nc(Nc4ccnn4C)ncc3C)nc2C(=O)N1Cc1ccc(F)c(F)c1` [Example 18, (R)-7-(3,4-Difluorobenzyl)-6-(methoxymethyl)-2-(5-methyl-2-((1-methyl-1H-pyrazol-5-yl)amino)pyrimidin-4-yl)-6,7-dihydroimidazo[1,2-a]pyrazin-8(5H)-one], half-maximal inhibition in assay [1] (IC50) was put at 5.7 nM. In addition, the “cell growth inhibition as monotherapy” value in assay [2] is reported as “can inhibit the growth of a panel of cancer cell lines with KRAS mutations as a monotherapy”.

Values taken from patent US10202391B2, “Chemical compounds” (AstraZeneca AB, priority 2015, dated 2019).
